Measurements as given in ChEMBL document CHEMBL6114963, “Discovery and preclinical evaluations of drug candidate DA-0157 capable of overcoming EGFR drug-resistant mutation C797S and EGFR/ALK co-mutations” (Eur J Med Chem, 2025).

Legend:
BaF3 [1] = assay: Antiproliferative activity against mouse BaF3 cells harboring EML4-ALK assessed as inhibition of cell growth incubated for 72 hrs by CellTiter-Glo assay; type: functional, cell-based; details: BaF3, 72 h
BaF3 [2] = assay: Antiproliferative activity against mouse BaF3 cells harboring EGFR Del19/T790M/C797S mutant assessed as inhibition of cell growth incubated for 72 hrs by CellTiter-Glo assay; type: functional, cell-based; details: BaF3, 72 h
BaF3 [3] = assay: Antiproliferative activity against mouse BaF3 cells harboring wild-type EGFR assessed as inhibition of cell growth incubated for 72 hrs by CellTiter-Glo assay; type: functional, cell-based; details: BaF3, 72 h
BaF3 [4] = assay: Antiproliferative activity against mouse BaF3 cells harboring EML4-ALK-L1196M mutant assessed as inhibition of cell growth incubated for 72 hrs by CellTiter-Glo assay; type: functional, cell-based; details: BaF3, 72 h
[5] = Antiproliferative activity against human NCI-H1975 cells harbouring EGFR del19/T790M/C797S mutant assessed as inhibition of cell growth incubated for 72 hrs by CellTiter-Glo Luminescent Cell Viability Assay; type: functional, cell-based; details: NCI-H1975, 72 h
A-431 = assay: Antiproliferative activity against human A-431 cells harbouring wild-type EGFR assessed as inhibition of cell growth incubated for 72 hrs by CellTiter-Glo Luminescent Cell Viability Assay; type: functional, cell-based; details: A-431, 72 h
PC-9 = assay: Antiproliferative activity against human PC-9 cells harbouring EGFR del19/T790M/C797S mutant assessed as inhibition of cell growth incubated for 72 hrs by CellTiter-Glo Luminescent Cell Viability Assay; type: functional, cell-based; details: PC-9, 72 h
[6] = Toxicity in male Sprague-Dawley rat assessed as animal death at 125 mg/kg, po administered for 14 days; type: organism-based; details: in vivo, 336 h, time 14 day
[7] = Toxicity in female Sprague-Dawley rat assessed as animal death at 125 mg/kg, po administered for 14 days; type: organism-based; details: in vivo, 336 h, time 14 day
[8] = MRT (0 to infinity) in male Sprague-Dawley rat plasma at 10 mg/kg, po measured upto 72 hrs; type: ADME, organism-based
[9] = Toxicity in male Sprague-Dawley rat assessed as animal death at 75 mg/kg, po administered for 14 days; type: organism-based; details: in vivo, 336 h, time 14 day
[10] = Toxicity in male Sprague-Dawley rat assessed as animal death at 200 mg/kg, po administered for 14 days; type: organism-based; details: in vivo, 336 h, time 14 day
[11] = Toxicity in female Sprague-Dawley rat assessed as animal death at 75 mg/kg, po administered for 14 days; type: organism-based; details: in vivo, 336 h, time 14 day
[12] = Tmax in male Sprague-Dawley rat plasma at 10 mg/kg, po measured upto 72 hrs; type: ADME, organism-based
[13] = Half life in male Sprague-Dawley rat plasma at 10 mg/kg, po measured upto 72 hrs; type: ADME, organism-based
[14] = AUC (0 to infinity) in male Sprague-Dawley rat plasma at 10 mg/kg, po measured upto 72 hrs; type: ADME, organism-based
[15] = Toxicity in Sprague-Dawley rat assessed as maximum tolerated dose administered as single po dose measured for 14 days; type: organism-based; details: in vivo, time 14 day
NCI-H3122 = assay: Antiproliferative activity against human NCI-H3122 cells harbouring EML4-ALK assessed as inhibition of cell growth incubated for 72 hrs by CellTiter-Glo Luminescent Cell Viability Assay; type: functional, cell-based; details: NCI-H3122, 72 h
[16] = Toxicity in Sprague-Dawley rat blood assessed as adverse effect at 17.5 mg/kg, po administered once daily for 7 days; type: organism-based; details: in vivo, 168 h, time 7 day
BaF3 [17] = assay: Antitumor activity against mouse BaF3 cells harbouring EML-4-ALK-L1196M mutant allografted in female BALB/c nude mouse assessed as tumor growth inhibition at 37 mg/kg, po administered once daily for 11 days by vernier caliper based analysis relative to control; type: functional; details: BaF3, 264 h, time 11 day, read-out: TGI
[18] = Toxicity in female Sprague-Dawley rat assessed as animal death at 200 mg/kg, po administered for 14 days; type: organism-based; details: in vivo, 336 h, time 14 day
BaF3 [19] = assay: Antiproliferative activity against mouse BaF3 cells harbouring EML4-ALK-C1156Y mutant assessed as inhibition of cell growth incubated for 72 hrs by CellTiter-Glo Luminescent Cell Viability Assay; type: functional, cell-based; details: BaF3, 72 h
[20] = Cmax in male Sprague-Dawley rat plasma at 10 mg/kg, po measured upto 72 hrs; type: ADME, organism-based
BaF3 [21] = assay: Antitumor activity against mouse BaF3 cells harbouring EML-4-ALK-L1196M mutant allografted in female BALB/c nude mouse assessed as tumor growth inhibition at 25 mg/kg, po administered once daily for 11 days by vernier caliper based analysis relative to control; type: functional; details: BaF3, 264 h, time 11 day, read-out: TGI
[22] = Antitumor activity against patient derived LU2445 lung cancer cells harbouring EML4-ALK model assessed as tumor growth inhibition po dose administered for 25 days by vernier caliper based analysis relative to control; type: functional, Homo sapiens; details: time 25 day
BaF3 [23] = assay: Antitumor activity against mouse BaF3 cells harbouring EML-4-ALK-L1196M mutant allografted in female BALB/c nude mouse assessed as tumor growth inhibition at 100 mg/kg, po administered once daily for 11 days by vernier caliper based analysis relative to control; type: functional, organism-based; details: time 11.0 day
BaF3 [24] = assay: Antitumor activity against mouse BaF3 cells harbouring EML-4-ALK-L1196M mutant allografted in female BALB/c nude mouse assessed as tumor growth inhibition at 46 mg/kg, po administered once daily for 11 days by vernier caliper based analysis relative to control; type: functional; details: BaF3, 264 h, time 11 day, read-out: TGI
[25] = Potency index, ratio of Brigatinib IC50 to test compound IC50 for antiproliferative activity against mouse BaF3 cells harboring EML4-ALK-L1196M mutant assessed as inhibition of cell growth incubated for 72 hrs by CellTiter-Glo assay; type: functional
[26] = Potency index, ratio of Brigatinib IC50 to test compound IC50 for antiproliferative activity against mouse BaF3 cells harboring EGFR Del19/T790M/C797S mutant assessed as inhibition of cell growth incubated for 72 hrs by CellTiter-Glo assay; type: functional
BaF3 [27] = assay: Antitumor activity against mouse BaF3 cells harbouring EML-4-ALK-L1196M mutant allografted in female BALB/c nude mouse assessed as tumor growth inhibition at 20 mg/kg, po administered once daily for 11 days by vernier caliper based analysis relative to control; type: functional; details: BaF3, 264 h, time 11 day, read-out: TGI

Structure (SMILES): COc1cc(N2CCC(N3CCN(C)CC3)CC2)ccc1Nc1ncc(Cl)c(Nc2ccc(C)cc2P(C)(C)=O)n1
- IC50 (BaF3 [1]): 7 nM
- IC50 (BaF3 [2]): 190 nM
- IC50 (BaF3 [3]): 1780 nM
- IC50 (BaF3 [4]): 16 nM

Structure (SMILES): C#Cc1cccc(Nc2ncnc3cc(OCCOC)c(OCCOC)cc23)c1 [ERLOTINIB]
- IC50 [5]: 4930 nM
- IC50 (A-431): 650 nM
- IC50 (PC-9): 9510 nM

Structure (SMILES): COc1cc(N2CCC(N3CCN(C)CC3)CC2)ccc1Nc1ncc(Cl)c(Nc2ccccc2P(C)(C)=O)n1 [BRIGATINIB]
- Activity [6]: Toxic
- IC50 (BaF3 [1]): 4 nM
- Activity [7]: Toxic
- MRT inf [8]: 9.7 h
- Activity [9]: Toxic
- IC50 (BaF3 [2]): 180 nM
- Activity [10]: Toxic
- Activity [11]: Toxic
- Tmax [12]: 3 h
- IC50 (BaF3 [3]): 1650 nM
- half-life [13]: 18.6 h
- AUC(0-inf) [14]: 21600 ng·h/mL
- MTD at 336 h [15]: 75 mg/kg
- IC50 (BaF3 [4]): 10 nM
- IC50 (NCI-H3122): 14 nM
- Activity [16]: Toxic
- inhibition in vivo at 37 mg/kg (BaF3 [17]): 94.8%
- Activity [18]: Toxic
- IC50 (BaF3 [19]): 190 nM
- Cmax [20]: 1930 ng/mL

Structure (SMILES): Cc1cc(Nc2ncc(Cl)c(Nc3ccccc3S(=O)(=O)C(C)C)n2)c(OC(C)C)cc1C1CCNCC1 [CERITINIB]
- inhibition in vivo at 25 mg/kg (BaF3 [21]): -3.8%

Structure (SMILES): C=CC(=O)Nc1cc(Nc2nccc(-c3cn(C)c4ccccc34)n2)c(OC)cc1N(C)CCN(C)C [OSIMERTINIB]
- IC50 (BaF3 [2]): 790 nM
- IC50 [5]: 3360 nM
- IC50 (BaF3 [3]): 75 nM
- IC50 (PC-9): 2850 nM

Structure (SMILES): COc1cc(N2CCC(N3CCN(C)CC3)CC2)c(C)cc1Nc1ncc(Br)c(Nc2ccc(F)cc2P(C)(C)=O)n1
- IC50 (BaF3 [1]): 9 nM
- IC50 (BaF3 [2]): 19 nM
- IC50 (BaF3 [3]): 1080 nM
- IC50 (BaF3 [4]): 17 nM

Structure (SMILES): C[C@@H](Oc1cc(-c2cnn(C3CCNCC3)c2)cnc1N)c1c(Cl)ccc(F)c1Cl [CRIZOTINIB]
- IC50 (BaF3 [1]): 20 nM
- TGI [22]: 18%
- IC50 (BaF3 [4]): 160 nM
- IC50 (NCI-H3122): 120 nM
- TGI (BaF3 [23]): No effect

Structure (SMILES): C[C@@H]1CN(C(=O)c2ccc(NC(=O)c3cc(O[C@H](C)c4c(Cl)ccc(F)c4Cl)c(N)nn3)cc2)C[C@H](C)N1 [ENSARTINIB]
- inhibition in vivo at 46 mg/kg (BaF3 [24]): -32.4%

Structure (SMILES): COc1cc(N2CCC(N3CCN(C)CC3)CC2)c(C)cc1Nc1ncc(Cl)c(Nc2ccc(C)cc2P(C)(C)=O)n1
- IC50 (BaF3 [1]): 14 nM
- Ratio [25]: 8
- IC50 (BaF3 [2]): 22 nM
- IC50 (BaF3 [3]): 690 nM
- IC50 (BaF3 [4]): 29 nM
- Ratio [26]: 8

Structure (SMILES): COc1cc(N2CCC(N3CCN(C)CC3)CC2)c(C)cc1Nc1ncc(Br)c(Nc2ccc(Cl)cc2P(C)(C)=O)n1
- IC50 (BaF3 [1]): 12 nM
- IC50 (BaF3 [2]): 5 nM
- IC50 (BaF3 [3]): 1030 nM
- IC50 (BaF3 [4]): 25 nM

Structure (SMILES): COc1cc(N2CCC(N3CCN(C)CC3)CC2)c(C)cc1Nc1ncc(Cl)c(Nc2ccccc2P(C)(C)=O)n1
- IC50 (BaF3 [1]): 7 nM
- IC50 (BaF3 [2]): 26 nM
- IC50 (BaF3 [3]): 820 nM
- IC50 (BaF3 [4]): 18 nM
- Ratio [26]: 7

Structure (SMILES): CCc1cc2c(cc1N1CCC(N3CCOCC3)CC1)C(C)(C)c1[nH]c3cc(C#N)ccc3c1C2=O [ALECTINIB]
- inhibition in vivo at 20 mg/kg (BaF3 [27]): 87.4%

Structure (SMILES): COc1cc(N2CCC(N3CCN(C)CC3)CC2)c(Cl)cc1Nc1ncc(Br)c(Nc2ccc(C)cc2P(C)(C)=O)n1
- IC50 (BaF3 [1]): 7 nM
- IC50 (BaF3 [2]): 19 nM
- IC50 (BaF3 [3]): 600 nM
- IC50 (BaF3 [4]): 13 nM

Structure (SMILES): C[C@H]1Oc2cc(cnc2N)-c2c(nn(C)c2C#N)CN(C)C(=O)c2ccc(F)cc21 [LORLATINIB]
- inhibition in vivo at 20 mg/kg (BaF3 [27]): 129%
